Assay results published in ChEMBL document CHEMBL1201862, “PubChem BioAssay data set” (2004).
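Grown in 96-well plates, cells were treated for 48 hours with each compound at five concentrations. Insufficient inhibition: endpoint recorded as highest concentration tested. GI50: concentration for 50% inhibition of growth.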 The source made the active and inactive calls. Rule as the data show it: active = GI50 up to about 1.1 µM and inactive = higher.

Columns and labels:
Experiment in all cases: NCI anticancer screen, dose series, 48 h
A498 = test system: A498
A549 = test system: A549
ACHN = test system: ACHN
CAKI-1 = test system: CAKI-1
CCRF-CEM = test system: CCRF-CEM
COLO 205 = test system: COLO 205
DLD-1 = test system: DLD-1
DMS-114 = test system: DMS-114
DMS-273 = test system: DMS-273
EKVX = test system: EKVX
HCC 2998 = test system: HCC 2998
HCT-116 = test system: HCT-116
HCT-15 = test system: HCT-15
HL-60 = test system: HL-60
HOP-62 = test system: HOP-62
HOP-92 = test system: HOP-92
HT-29 = test system: HT-29
IGROV-1 = test system: IGROV-1
K562 = test system: K562
KM-20L2 = test system: KM-20L2
KM12 = test system: KM12
LOX IMVI = test system: LOX IMVI
LXFL 529 = test system: LXFL 529
M14 = test system: M14
M19-MEL = test system: M19-MEL
MOLT-4 = test system: MOLT-4
NCI-H226 = test system: NCI-H226
NCI-H23 = test system: NCI-H23
NCI-H460 = test system: NCI-H460
NCI-H522 = test system: NCI-H522
OVCAR-4 = test system: OVCAR-4
OVCAR-5 = test system: OVCAR-5
OVCAR-8 = test system: OVCAR-8
RPMI-8226 = test system: RPMI-8226
RXF 393 = test system: RXF 393
RXF 631 = test system: RXF 631
SF-268 = test system: SF-268
SF-295 = test system: SF-295
SF-539 = test system: SF-539
SK-MEL-28 = test system: SK-MEL-28
SK-MEL-2 = test system: SK-MEL-2
SK-MEL-5 = test system: SK-MEL-5
SK-OV-3 = test system: SK-OV-3
SN12C = test system: SN12C
SNB-19 = test system: SNB-19
SNB-75 = test system: SNB-75
SNB-78 = test system: SNB-78
SR = test system: SR
SW-620 = test system: SW-620
TK-10 = test system: TK-10
U-251 = test system: U-251
UACC-257 = test system: UACC-257
UACC-62 = test system: UACC-62
UO-31 = test system: UO-31
XF498 = test system: XF498
786-0 = test system: 786-0
HOP-18 = test system: HOP-18
Malme-3M = test system: Malme-3M
OVCAR-3 = test system: OVCAR-3
BT-549 = test system: BT-549
DU-145 = test system: DU-145
Hs-578T = test system: Hs-578T
MCF7 = test system: MCF7
MDA-MB-231 = test system: MDA-MB-231
MDA-MB-435 = test system: MDA-MB-435
MDA-N = test system: MDA-N
NCI/ADR-RES = test system: NCI/ADR-RES
PC-3 = test system: PC-3
T47D = test system: T47D

Measured: GI50

O=C(Nc1ccc([N+](=O)[O-])cc1)C(=O)C(C(=O)c1ccccc1F)C1OC(=O)c2ccccc21 (centres undefined)
29.9 µM: HCT-15
inactive: A498 80.9 µM | A549 67.6 µM | ACHN 58.5 µM | CAKI-1 59.4 µM | CCRF-CEM 16.6 µM | COLO 205 25.9 µM | DLD-1 40.6 µM | DMS-114 29 µM | DMS-273 23.8 µM | EKVX 40.4 µM | HCC 2998 21 µM | HCT-116 31.6 µM | HL-60 22.2 µM | HOP-62 58.1 µM | HOP-92 > 100 µM | HT-29 51.9 µM | IGROV-1 64.9 µM | K562 25.3 µM | KM-20L2 33.9 µM | KM12 42.4 µM | LOX IMVI 17.7 µM | LXFL 529 33.7 µM | M14 69.7 µM | M19-MEL 28.1 µM | MOLT-4 26 µM | NCI-H226 16.6 µM | NCI-H23 81.1 µM | NCI-H460 34.9 µM | NCI-H522 14.7 µM | OVCAR-4 42.8 µM | OVCAR-5 58.3 µM | OVCAR-8 35.9 µM | RPMI-8226 18.2 µM | RXF 393 50.9 µM | RXF 631 26 µM | SF-268 35 µM | SF-295 40.3 µM | SF-539 21.5 µM | SK-MEL-28 46.9 µM | SK-MEL-2 23.7 µM | SK-MEL-5 48.5 µM | SK-OV-3 41.2 µM | SN12C 30.8 µM | SNB-19 26.4 µM | SNB-75 30.2 µM | SNB-78 5.65 µM | SR 21.9 µM | SW-620 49 µM | TK-10 > 100 µM | U-251 17.7 µM | UACC-257 86.5 µM | UACC-62 25.2 µM | UO-31 38.1 µM | XF498 70.3 µM

COc1cc(/C=C2\[C@H]3c4c(c(OC)c(C)c(OC)c4OC)C[C@@H](C(=O)N2Cc2ccccc2)N3C(=O)OC(C)C)c(OC)c(C)c1OC
inactive: 786-0 > 100 µM | A498 > 100 µM | A549 > 100 µM | ACHN > 100 µM | CCRF-CEM 54 µM | COLO 205 53.7 µM | DLD-1 > 100 µM | DMS-114 47.5 µM | DMS-273 25.9 µM | EKVX 52.5 µM | HCC 2998 29.6 µM | HCT-116 58.7 µM | HL-60 19.8 µM | HOP-18 > 100 µM | HOP-62 > 100 µM | HOP-92 8.34 µM | HT-29 53.2 µM | IGROV-1 > 100 µM | K562 40 µM | KM-20L2 > 100 µM | KM12 66.8 µM | LOX IMVI > 100 µM | LXFL 529 52.1 µM | M14 > 100 µM | MOLT-4 42.9 µM | Malme-3M 60.1 µM | NCI-H226 6.08 µM | NCI-H23 78 µM | NCI-H460 5.31 µM | NCI-H522 27.5 µM | OVCAR-3 67.3 µM | OVCAR-4 69.3 µM | OVCAR-5 > 100 µM | OVCAR-8 > 100 µM | RPMI-8226 27.2 µM | RXF 393 > 100 µM | RXF 631 > 100 µM | SF-268 > 100 µM | SF-295 > 100 µM | SF-539 > 100 µM | SK-MEL-28 > 100 µM | SK-MEL-2 > 100 µM | SK-MEL-5 48.4 µM | SK-OV-3 2.52 µM | SN12C 88.7 µM | SNB-75 > 100 µM | SR 21.8 µM | SW-620 54 µM | TK-10 79.3 µM | U-251 53.1 µM | UACC-257 34 µM | UACC-62 92.9 µM | UO-31 66.7 µM

COC1=C(N=[N+]=[N-])C(=O)c2ncccc2C1=O
inactive: 786-0 8.79 µM | A498 17.1 µM | A549 16.6 µM | ACHN 4.28 µM | BT-549 10.8 µM | CAKI-1 5.58 µM | COLO 205 3.04 µM | DLD-1 1.65 µM | DMS-114 6.85 µM | DMS-273 12.9 µM | DU-145 20.8 µM | EKVX 8.61 µM | HCC 2998 17.1 µM | HCT-116 2.65 µM | HOP-62 15.8 µM | HOP-92 1.29 µM | HT-29 18.4 µM | Hs-578T 18.5 µM | IGROV-1 5.38 µM | K562 2.84 µM | KM-20L2 18.5 µM | KM12 15.6 µM | LOX IMVI 3.3 µM | LXFL 529 1.72 µM | M14 3.73 µM | M19-MEL 1.91 µM | MCF7 1.82 µM | MDA-MB-231 12.4 µM | MDA-MB-435 2.12 µM | MDA-N 1.95 µM | Malme-3M 2.33 µM | NCI-H226 19.2 µM | NCI-H23 5.36 µM | NCI-H460 15.7 µM | NCI-H522 1.9 µM | NCI/ADR-RES 10 µM | OVCAR-3 5.57 µM | OVCAR-4 2.69 µM | OVCAR-5 19.5 µM | OVCAR-8 3.47 µM | PC-3 15.5 µM | RPMI-8226 1.88 µM | RXF 393 3.75 µM | RXF 631 16.3 µM | SF-268 14.5 µM | SF-295 15.6 µM | SF-539 16 µM | SK-MEL-28 14.3 µM | SK-MEL-2 18.6 µM | SK-MEL-5 10.1 µM | SK-OV-3 15.2 µM | SN12C 15.5 µM | SNB-19 17.1 µM | SNB-75 13.1 µM | SNB-78 5.7 µM | SR 2.36 µM | SW-620 1.95 µM | T47D 2.13 µM | TK-10 10.9 µM | U-251 14.6 µM | UACC-257 4.34 µM | UACC-62 7.82 µM | UO-31 14.4 µM | XF498 4.74 µM
7.83 µM: HCT-15
active: CCRF-CEM 0.401 µM | HL-60 0.962 µM | MOLT-4 0.887 µM

O=C1C2Nc3ccccc3SC2C(=O)N1c1cccc([N+](=O)[O-])c1 (centres undefined)
inactive: 786-0 > 100 µM | A498 > 100 µM | A549 98.9 µM | ACHN > 84.1 µM | CAKI-1 > 100 µM | CCRF-CEM 86.7 µM | COLO 205 > 100 µM | DLD-1 48.9 µM | DMS-114 44.1 µM | DMS-273 1.46 µM | EKVX > 100 µM | HCC 2998 10.7 µM | HCT-116 > 100 µM | HL-60 > 100 µM | HOP-62 > 54.8 µM | HOP-92 > 100 µM | HT-29 > 92.3 µM | IGROV-1 > 100 µM | K562 > 100 µM | KM-20L2 > 20.5 µM | KM12 17 µM | LOX IMVI > 71.1 µM | LXFL 529 74.3 µM | M14 > 100 µM | M19-MEL > 100 µM | MOLT-4 51.8 µM | Malme-3M > 79.6 µM | NCI-H226 > 86.9 µM | NCI-H23 55.8 µM | NCI-H460 50.2 µM | NCI-H522 57.3 µM | OVCAR-3 > 100 µM | OVCAR-4 > 100 µM | OVCAR-5 13.4 µM | OVCAR-8 > 64 µM | RPMI-8226 > 100 µM | RXF 393 > 100 µM | RXF 631 > 100 µM | SF-268 > 100 µM | SF-295 > 74.5 µM | SF-539 > 100 µM | SK-MEL-28 > 100 µM | SK-MEL-2 > 75.7 µM | SK-MEL-5 > 100 µM | SK-OV-3 > 100 µM | SN12C > 86.9 µM | SNB-19 > 100 µM | SNB-75 > 100 µM | SNB-78 > 100 µM | SR > 100 µM | SW-620 > 100 µM | TK-10 35.4 µM | U-251 > 100 µM | UACC-257 > 100 µM | UACC-62 > 100 µM | UO-31 > 90.2 µM | XF498 > 100 µM
7.67 µM: HCT-15
